Laboratory results taken from BindingDB's records for doi:10.1021/jm0500875 (Pfizer, 2005).
Counter-ions that a name gives are not always drawn.

Key:
Assay in all cases: Enzyme Inhibition Assay
[1] = target: 72 kDa type IV collagenase (Homo sapiens, UniProt P08253)
Description: (§1) Inhibitors were assayed against purified hMMP-1, hMMP-2, hMMP-3, hMMP-8, hMMP-9, and hMMP-13 using an enzyme assay based on cleavage of the quenched fluorogenic peptide substrate. The increase in fluorescence due to cleavage of the substrate was measured with a fluorescence microplate reader. The Ki values were calculated by nonlinear regression analysis using the percent inhibition, and Km values of the substrates for each MMP.

Collagenase 3 = Collagenase 3 (Homo sapiens, UniProt P45452)
Description: as §1

Interstitial collagenase = target: T1, Interstitial collagenase (Homo sapiens, UniProt P03956)
T1 sequence (P03956 whole entry): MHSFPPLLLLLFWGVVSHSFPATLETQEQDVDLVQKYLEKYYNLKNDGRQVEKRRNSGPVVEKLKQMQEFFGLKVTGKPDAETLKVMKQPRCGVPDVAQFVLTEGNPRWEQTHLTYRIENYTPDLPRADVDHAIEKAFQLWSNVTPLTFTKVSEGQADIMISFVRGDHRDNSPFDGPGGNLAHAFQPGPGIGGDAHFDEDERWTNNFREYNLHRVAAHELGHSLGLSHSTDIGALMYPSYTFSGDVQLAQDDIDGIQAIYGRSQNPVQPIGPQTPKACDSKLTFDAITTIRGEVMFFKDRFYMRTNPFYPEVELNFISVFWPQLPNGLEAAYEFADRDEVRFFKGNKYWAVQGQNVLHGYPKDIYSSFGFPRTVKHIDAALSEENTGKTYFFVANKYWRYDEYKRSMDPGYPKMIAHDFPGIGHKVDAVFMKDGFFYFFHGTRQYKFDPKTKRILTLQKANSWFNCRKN
Description: as §1

[2] = target: Matrix metalloproteinase-9 (Homo sapiens, UniProt P14780)
Description: as §1

Neutrophil collagenase = Neutrophil collagenase (Homo sapiens, UniProt P22894)
Description: as §1

Stromelysin-1 = Stromelysin-1 (Homo sapiens, UniProt P08254)
Description: as §1

Chain of Stromelysin-1 (P08254 whole entry): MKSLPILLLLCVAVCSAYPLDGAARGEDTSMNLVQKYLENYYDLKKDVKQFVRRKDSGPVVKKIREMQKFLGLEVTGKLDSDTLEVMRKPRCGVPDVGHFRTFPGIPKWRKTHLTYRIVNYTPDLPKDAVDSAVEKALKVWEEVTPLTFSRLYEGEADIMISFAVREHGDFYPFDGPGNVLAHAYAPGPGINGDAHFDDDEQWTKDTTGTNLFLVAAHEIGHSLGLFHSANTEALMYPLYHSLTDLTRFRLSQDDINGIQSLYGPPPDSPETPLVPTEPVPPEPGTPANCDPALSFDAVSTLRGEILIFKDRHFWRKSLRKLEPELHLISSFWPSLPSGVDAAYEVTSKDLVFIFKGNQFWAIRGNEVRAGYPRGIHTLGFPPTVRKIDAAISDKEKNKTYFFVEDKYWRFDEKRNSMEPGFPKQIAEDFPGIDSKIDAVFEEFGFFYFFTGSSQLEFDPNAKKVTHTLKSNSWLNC
Chain of Neutrophil collagenase (P22894 whole entry): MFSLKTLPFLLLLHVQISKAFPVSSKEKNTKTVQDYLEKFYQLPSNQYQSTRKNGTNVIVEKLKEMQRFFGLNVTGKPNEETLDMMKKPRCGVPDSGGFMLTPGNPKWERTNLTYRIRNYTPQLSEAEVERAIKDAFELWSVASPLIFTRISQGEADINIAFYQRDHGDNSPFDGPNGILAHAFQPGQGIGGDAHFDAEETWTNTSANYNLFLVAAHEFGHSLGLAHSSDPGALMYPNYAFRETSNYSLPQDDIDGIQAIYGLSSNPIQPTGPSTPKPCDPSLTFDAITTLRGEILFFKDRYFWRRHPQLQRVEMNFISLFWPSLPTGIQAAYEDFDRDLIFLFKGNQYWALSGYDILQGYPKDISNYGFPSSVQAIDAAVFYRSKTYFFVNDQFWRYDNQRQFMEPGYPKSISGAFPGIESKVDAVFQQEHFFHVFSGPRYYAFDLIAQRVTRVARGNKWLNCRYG
Chain of 72 kDa type IV collagenase (P08253 whole entry): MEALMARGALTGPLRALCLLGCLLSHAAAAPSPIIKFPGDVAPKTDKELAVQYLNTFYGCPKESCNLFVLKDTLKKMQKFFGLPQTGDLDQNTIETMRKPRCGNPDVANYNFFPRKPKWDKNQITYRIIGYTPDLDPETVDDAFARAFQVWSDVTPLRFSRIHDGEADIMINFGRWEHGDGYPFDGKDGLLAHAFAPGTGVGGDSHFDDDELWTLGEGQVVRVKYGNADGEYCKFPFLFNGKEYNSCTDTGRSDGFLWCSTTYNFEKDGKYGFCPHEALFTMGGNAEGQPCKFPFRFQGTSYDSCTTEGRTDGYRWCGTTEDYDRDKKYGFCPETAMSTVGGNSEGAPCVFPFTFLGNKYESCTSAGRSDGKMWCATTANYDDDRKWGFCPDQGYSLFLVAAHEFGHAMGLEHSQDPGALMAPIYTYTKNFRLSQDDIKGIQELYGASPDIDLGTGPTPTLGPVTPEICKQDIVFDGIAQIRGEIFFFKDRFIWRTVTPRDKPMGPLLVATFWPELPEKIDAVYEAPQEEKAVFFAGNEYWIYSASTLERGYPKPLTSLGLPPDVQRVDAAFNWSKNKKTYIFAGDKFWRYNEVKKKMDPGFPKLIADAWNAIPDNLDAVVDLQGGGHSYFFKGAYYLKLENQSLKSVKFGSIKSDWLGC
Chain of Matrix metalloproteinase-9 (P14780 whole entry): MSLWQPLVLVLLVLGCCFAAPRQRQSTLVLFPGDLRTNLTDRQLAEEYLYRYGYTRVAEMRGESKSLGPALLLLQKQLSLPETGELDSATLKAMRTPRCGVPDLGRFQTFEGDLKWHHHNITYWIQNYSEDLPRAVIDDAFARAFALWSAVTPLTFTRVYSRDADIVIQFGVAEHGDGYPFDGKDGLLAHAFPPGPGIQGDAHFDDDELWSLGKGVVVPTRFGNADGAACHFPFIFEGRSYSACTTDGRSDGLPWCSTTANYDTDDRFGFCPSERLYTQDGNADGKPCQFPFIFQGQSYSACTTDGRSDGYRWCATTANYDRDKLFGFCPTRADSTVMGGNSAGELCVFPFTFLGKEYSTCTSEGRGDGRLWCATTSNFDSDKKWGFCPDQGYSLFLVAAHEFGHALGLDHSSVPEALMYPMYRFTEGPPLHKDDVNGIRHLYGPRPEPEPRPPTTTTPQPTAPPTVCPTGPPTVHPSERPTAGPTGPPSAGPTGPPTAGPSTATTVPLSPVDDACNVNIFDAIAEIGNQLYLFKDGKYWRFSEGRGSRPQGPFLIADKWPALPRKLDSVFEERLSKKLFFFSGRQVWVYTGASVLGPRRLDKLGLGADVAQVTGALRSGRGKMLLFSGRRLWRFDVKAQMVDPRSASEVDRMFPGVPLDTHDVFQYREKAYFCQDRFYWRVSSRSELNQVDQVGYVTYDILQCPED

Row | Ki [1] [nM] | Ki (Collagenase 3) [nM] | Ki (Interstitial collagenase; pH 7.5, 25 °C) [nM] | Ki [2] [nM] | Ki (Neutrophil collagenase) [nM] | Ki (Stromelysin-1) [nM] | Ki (Interstitial collagenase) [nM] | Structure (SMILES)
1 | 0.5 | 0.68 | – | 9.4 | – | 39.3 | > 10000 | CN1CCC(C(=O)NO)(S(=O)(=O)c2ccc(Sc3ccccc3)cc2)CC1 [N-Hydroxy-1-methyl-4-{[4-(phenylthio)phenyl]sulfonyl}-piperidine-4-carboxamide Hydrochloride]
2 | 0.3 | 0.5 | – | 1 | – | – | 800 | CS(=O)(=O)N1CCC(C(=O)NO)(S(=O)(=O)c2ccc(Oc3ccccc3)cc2)CC1 [N-hydroxy-1-methanesulfonyl-4-[(4-phenoxybenzene)sulfonyl]piperidine-4-carboxamide]
3 | 0.2 | 0.2 | 475 | – | – | – | – | CC(C)(C)OC(=O)N1CCC(CS(=O)(=O)c2ccc(Oc3ccccc3)cc2)(C(=O)NO)CC1 [tert-Butyl 4-[(Hydroxyamino)carbonyl]-4-{[(4-phenoxyphenyl)sulfonyl]methyl}piperidine-1-carboxylate]
4 | 0.13 | 0.22 | 274 | 0.4 | – | 12.6 | – | C#CCN1CCC(C(=O)NO)(S(=O)(=O)c2ccc(Oc3ccccc3)cc2)CC1 [N-Hydroxy-4-{[4-(phenoxyphenyl]sulfonyl}-1-(2-propynyl)4-piperidinecarboxamide, Monohydrochloride]
5 | 0.3 | 0.5 | – | 3 | 4 | 20 | > 10000 | COCCN1CCC(C(=O)NO)(S(=O)(=O)c2ccc(Sc3ccccc3)cc2)CC1 [N-hydroxy-1-(2-methoxyethyl)-4-{[4-(phenylsulfanyl)benzene]sulfonyl}piperidine-4-carboxamide hydrochloride]
6 | 0.2 | – | – | 0.6 | – | 0.3 | – | O=C(NO)C1(S(=O)(=O)c2ccc(Oc3ccccc3)cc2)CCN(C2CC2)CC1 [1-cyclopropyl-N-hydroxy-4-[(4-phenoxybenzene)sulfonyl]piperidine-4-carboxamide hydrochloride]
7 | 0.3 | – | 700 | 9 | 3 | 42.5 | – | O=C(NO)C1(CS(=O)(=O)c2ccc(Oc3ccccc3)cc2)CCN(CCc2ccccc2)CC1
8 | 0.1 | 0.2 | – | 2.5 | 3.5 | 23.5 | > 10000 | O=C(NO)C1(S(=O)(=O)c2ccc(Sc3ccccc3)cc2)CCN(C2CC2)CC1 [1-Cyclopropyl-N-hydroxy-4-{[4-(phenylthio)phenyl]-sulfonyl}piperidine-4-carboxamide Hydrochloride]
9 | 2.6 | 5.1 | – | – | – | – | 6600 | O=C(CS(=O)(=O)c1ccc(Oc2ccccc2)cc1)NO [N-hydroxy-2-[(4-phenoxybenzene)sulfonyl]acetamide]

More lines, now with the values behind:

Row | Structure (SMILES) | Ki [1] [nM] | Ki (Collagenase 3) [nM] | Ki (Interstitial collagenase; pH 7.5, 25 °C) [nM] | Ki [2] [nM] | Ki (Neutrophil collagenase) [nM] | Ki (Stromelysin-1) [nM] | Ki (Interstitial collagenase) [nM]
10 | CN1CCC(C(=O)NO)(S(=O)(=O)c2ccc(Oc3ccccc3)cc2)CC1 [N-hydroxy-1-methyl-4-[(4-phenoxybenzene)sulfonyl]piperidine-4-carboxamide hydrochloride] | < 0.1 | 0.1 | 464 | 0.29 | – | – | –
11 | O=C(NO)C1(CS(=O)(=O)c2ccc(Oc3ccccc3)cc2)CCNCC1 [N-hydroxy-4-{[(4-phenoxybenzene)sulfonyl]methyl}piperidine-4-carboxamide hydrochloride] | 2.8 | 8 | 2400 | 30 | 2.4 | 158 | –
12 | O=C(NO)C1(S(=O)(=O)c2ccc(Oc3ccc(Cl)cc3)cc2)CCOCC1 [4-{[4-(4-chlorophenoxy)benzene]sulfonyl}-N-hydroxyoxane-4-carboxamide] | < 0.1 | – | – | – | – | 18.1 | –
13 | CS(=O)(=O)N1CCC(C(=O)NO)(S(=O)(=O)c2ccc(Sc3ccccc3)cc2)CC1 [N-hydroxy-1-methanesulfonyl-4-{[4-(phenylsulfanyl)benzene]sulfonyl}piperidine-4-carboxamide] | 2 | 2.6 | – | 14.7 | 4 | 32 | > 10000
14 | COCCN1CCC(C(=O)NO)(S(=O)(=O)c2ccc(Oc3ccccc3)cc2)CC1 [N-hydroxy-1-(2-methoxyethyl)-4-[(4-phenoxybenzene)sulfonyl]piperidine-4-carboxamide hydrochloride] | 0.1 | 0.1 | 350 | 0.7 | – | 0.3 | –
15 | O=C(NO)C1(CS(=O)(=O)c2ccc(Oc3ccc(Cl)cc3)cc2)CCOCC1 | – | – | 800 | – | 1.8 | 17.5 | –
16 | CC(=O)N1CCC(C(=O)NO)(S(=O)(=O)c2ccc(Sc3ccccc3)cc2)CC1 [1-acetyl-N-hydroxy-4-{[4-(phenylsulfanyl)benzene]sulfonyl}piperidine-4-carboxamide] | 0.4 | 0.6 | – | 8 | 5 | 23 | 7300
17 | CC(=O)N1CCC(C(=O)NO)(S(=O)(=O)c2ccc(Oc3ccccc3)cc2)CC1 [1-Acetyl-N-hydroxy-4-{[4-(phenoxyphenyl]sulfonyl}-piperidine-4-carboxamide] | – | < 0.1 | – | – | – | – | 464
18 | COc1cccc(CN2CCC(CS(=O)(=O)c3ccc(Oc4ccccc4)cc3)(C(=O)NO)CC2)c1 [N-hydroxy-1-[(3-methoxyphenyl)methyl]-4-{[(4-phenoxybenzene)sulfonyl]methyl}piperidine-4-carboxamide hydrochloride] | 0.2 | 0.4 | 330 | 1.1 | – | 18.1 | –
19 | CC(C)(C)OC(=O)N1CCC(C(=O)NO)(S(=O)(=O)c2ccc(Oc3ccccc3)cc2)CC1 [tert-butyl 4-(hydroxycarbamoyl)-4-[(4-phenoxybenzene)sulfonyl]piperidine-1-carboxylate] | 0.2 | 0.3 | 1140 | – | – | – | –
20 | C=CCN1CCC(C(=O)NO)(S(=O)(=O)c2ccc(Sc3ccccc3)cc2)CC1 [N-hydroxy-4-{[4-(phenylsulfanyl)benzene]sulfonyl}-1-(prop-2-en-1-yl)piperidine-4-carboxamide hydrochloride] | 0.15 | 0.3 | – | – | – | – | > 10000
21 | O=C(NO)C1(S(=O)(=O)c2ccc(Oc3ccccc3)cc2)CCNCC1 [N-hydroxy-4-[(4-phenoxybenzene)sulfonyl]piperidine-4-carboxamide] | 0.22 | 0.37 | 1060 | 5 | 3.5 | 59 | –
22 | CC(C)(C(=O)NO)S(=O)(=O)c1ccc(Oc2ccccc2)cc1 [N-hydroxy-2-methyl-2-[(4-phenoxybenzene)sulfonyl]propanamide] | 0.1 | 0.25 | – | – | – | – | 220
23 | O=C(NO)C1(S(=O)(=O)c2ccc(Oc3ccccc3)cc2)CCN(CC2CC2)CC1 [1-(Cyclopropylmethyl)-N-hydroxy-4-[(4-phenoxyphenyl)sulfonyl]piperidine-4-carboxamide Hydrochloride] | < 0.1 | < 0.1 | 770 | – | – | – | –
24 | C#CCN1CCC(CS(=O)(=O)c2ccc(Oc3ccccc3)cc2)(C(=O)NO)CC1 | 0.25 | 0.55 | 417 | 4.5 | – | 35 | –
25 | C#CCN1CCC(CS(=O)(=O)c2ccc(Oc3ccc(C)c(C)c3)cc2)(C(=O)NO)CC1 [4-({[4-(3,4-Dimethylphenoxy)phenyl]sulfonyl}methyl)-N-hydroxy-1-prop-2-ynylpiperidine-4-carboxamide Hydrochloride] | 0.9 | 0.8 | – | 7 | – | 18.1 | –
26 | CCN1CCC(C(=O)NO)(S(=O)(=O)c2ccc(Sc3ccccc3)cc2)CC1 [1-ethyl-N-hydroxy-4-{[4-(phenylsulfanyl)benzene]sulfonyl}piperidine-4-carboxamide hydrochloride] | 0.8 | 0.8 | – | – | – | – | > 10000
27 | C#CCN1CCC(C(=O)NO)(S(=O)(=O)c2ccc(Sc3ccccc3)cc2)CC1 [N-hydroxy-4-{[4-(phenylsulfanyl)benzene]sulfonyl}-1-(prop-2-yn-1-yl)piperidine-4-carboxamide hydrochloride] | 0.33 | – | – | – | 1.8 | 13 | 8660
